In patent publication US6545011B2, “Substituted 4,9-dihydrocyclopenta[imn]phenanthridine-5-ones, derivatives thereof and their uses” (Guilford Pharmaceuticals Inc., priority 2000, dated 2003):
Values joined by “and” are separate entries in the source; they are usually repeats but may differ in a detail not shown here. Identical values can stand only once.

Molecular target: T1, purified recombinant human PARP (Homo sapiens, UniProt P09874)
T1 construct: purchased Trevigan (Gaithersburg, Md.)
Experiment: PARP enzyme assay (IC50), [3H]NAD incorporation
Type: biochemical
Conditions: approximate values, read-out: Inhibition IC50
Protocol: The reaction is initiated by incubating the mixture at 25° C. After 15 minutes of incubation, the reaction is terminated by adding 500 microliters of ice cold 20% (w/v) trichloroacetic acid. The precipitate formed is transferred onto a glass fiber filter (Packard Unifilter-GF/B) and washed three times with ethanol. After the filter is dried, the radioactivity is determined by scintillation counting.
Using the PARP assay described above, approximate IC50 (μM) values were obtained as shown in the following Table III, which also include specific embodiments of the compounds of the present invention: […]

T1 sequence (P09874 whole entry): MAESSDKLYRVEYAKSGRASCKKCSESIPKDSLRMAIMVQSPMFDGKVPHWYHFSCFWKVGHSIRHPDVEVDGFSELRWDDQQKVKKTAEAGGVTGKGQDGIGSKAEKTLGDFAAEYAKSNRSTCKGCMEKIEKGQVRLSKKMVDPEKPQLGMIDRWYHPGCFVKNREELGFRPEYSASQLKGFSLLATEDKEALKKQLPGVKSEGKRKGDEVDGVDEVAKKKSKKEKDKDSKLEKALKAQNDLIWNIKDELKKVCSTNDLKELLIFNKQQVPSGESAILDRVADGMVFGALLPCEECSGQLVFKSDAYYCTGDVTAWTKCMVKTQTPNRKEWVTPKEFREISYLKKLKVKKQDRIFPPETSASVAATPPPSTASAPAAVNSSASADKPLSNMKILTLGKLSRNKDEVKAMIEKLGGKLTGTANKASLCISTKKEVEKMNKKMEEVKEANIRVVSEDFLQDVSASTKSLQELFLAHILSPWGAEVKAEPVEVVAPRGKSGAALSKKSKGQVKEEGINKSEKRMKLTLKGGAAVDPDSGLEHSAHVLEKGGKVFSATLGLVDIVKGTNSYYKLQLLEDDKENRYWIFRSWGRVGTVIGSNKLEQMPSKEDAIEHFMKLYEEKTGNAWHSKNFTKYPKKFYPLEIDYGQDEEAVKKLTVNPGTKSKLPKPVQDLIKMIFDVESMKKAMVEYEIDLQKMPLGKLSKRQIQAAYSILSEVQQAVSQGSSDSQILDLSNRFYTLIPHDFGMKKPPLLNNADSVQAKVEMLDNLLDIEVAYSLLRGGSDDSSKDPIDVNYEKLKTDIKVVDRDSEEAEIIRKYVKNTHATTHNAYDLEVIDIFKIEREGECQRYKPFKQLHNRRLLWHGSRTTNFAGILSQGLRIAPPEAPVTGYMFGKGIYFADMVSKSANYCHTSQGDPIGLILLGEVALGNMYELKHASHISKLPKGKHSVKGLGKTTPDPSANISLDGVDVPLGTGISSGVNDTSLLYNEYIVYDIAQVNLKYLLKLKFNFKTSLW

IC50 | Compound
130 nM | CN1CCN(S(=O)(=O)c2ccc3[nH]c(=O)c4cccc5c4c3c2C5)CC1 [Compound 9, 5,9-Dihydro-1-[(4-methyl-1-piperazinyl)sulfonyl]-4[H]cyclopenta[lmn]phenathridin-5-one]
60 nM | Nc1ccc2[nH]c(=O)c3cccc4c3c2c1C4 [Compound 5, 5,9-dihydro-1-amino-4[H]cyclopenta[lmn]phenathridin-5-one]
50 nM | CC(=O)Nc1ccc2[nH]c(=O)c3cccc4c3c2c1C4 [Compound 13, 5,9-Dihydro-5-oxo-4[H]cyclopenta[mn]phenathridin-1-yl acetamide]
80 nM | O=C(Nc1ccc2[nH]c(=O)c3cccc4c3c2c1C4)c1cccc(F)c1 [Compound 14, N-(5,9-Dihydro-5-oxo-4[H]cyclopenta[lmn]phenathridin-1-yl)-3-fluorbenzamide]
50 nM | O=c1[nH]c2ccc(S(=O)(=O)NCCN3CCCCC3)c3c2c2c(cccc12)C3 [Compound 11, 5,9-Dihydro-5-oxo-N-[2-(1-piperidinyl)ethyl]-4[H]cyclopenta[lmn]phenathridine-1-sulfonamide]
30 nM | O=c1[nH]c2cc(F)cc3c(=O)c4cc(F)cc1c4c23 [Compound 17]
70 nM | O=c1[nH]c2cccc3c(=O)c4cccc1c4c23 [Compound 16, 9-oxo-5,9-dihydro-4[H]cyclopenta[lmn]phenathridin-5-one]
100 nM | O=c1[nH]c2cccc3c2c2c(cccc12)C3 [Compound 1, 5,9-dihydro-4[H]cyclopenta[lmn]phenathridin-5-one]
100 nM | O=c1[nH]c2cc(F)cc3c2c2c(cc(F)cc12)C3O (centres unmarked) [Compound 19]
360 nM | CC(=O)OC1c2cc(F)cc3[nH]c(=O)c4cc(F)cc1c4c23 (centres unmarked) [Compound 21, 5,9-Dihydro-2,7-difluoro-5-oxo-4[H]cyclopenta[lmn]phenathridin-9-yl acetate]
70 nM | O=c1[nH]c2ccc(S(=O)(=O)NCCN3CCOCC3)c3c2c2c(cccc12)C3 [Compound 8, 5,9-Dihydro-N-[2-(4-morpholinyl)ethyl]-1-oxo-[H]cyclopenta[lmn]phenathridine-1-sulfonamide]
70 nM | O=c1[nH]c2ccc(S(=O)(=O)NCCc3ccncc3)c3c2c2c(cccc12)C3 [Compound 10]
70 nM | N-(5,9-Dihydro-5-oxo-4[H]cyclopenta[lmn]phenathridin-1-yl)-4-fluorbenzamide [Compound 15]
40 nM | O=c1[nH]c2ccc(S(=O)(=O)N3CCOCC3)c3c2c2c(cccc12)C3 [Compound 12, 5,9-Dihydro-1-(4-morpholinylsulfonyl)-4[H]cyclopenta[lmn]phenathridin-5-one]
110 nM | O=c1[nH]c2ccc(S(=O)(=O)O)c3c2c2c(cccc12)C3 [Compound 2, 5,9-Dihydro-5-oxo-4[H]cyclopenta[lmn]phenathridine-1-sulfonic acid]
120 nM | O=c1[nH]c2cccc3c2c2c(cccc12)C3O (centres unmarked) [Compound 18]
810 nM | CC(=O)OC1c2cccc3[nH]c(=O)c4cccc1c4c23 (centres unmarked) [Compound 20]
111 nM | O=c1[nH]c2ccc([N+](=O)[O-])c3c2c2c(cccc12)C3 [Compound 4, 5,9-dihydro-1-nitro-4[H]cyclopenta[lmn]phenathridin-5-one]
380 nM | O=c1[nH]c2ccc(S(=O)(=O)N3CCN(c4ccccn4)CC3)c3c2c2c(cccc12)C3 [Compound 6]
20 nM | O=c1[nH]c2cc(Cl)cc3[nH]c4cc(Cl)cc1c4c23 [Compound 22, 2,7,-Dichloro-5,9-dihydro-4[H]pyrrol[2,3,4,5-lmn]phenathridin-5-one]

Test system: MSU crystal-induced neutrophil recruitment
Experiment: Gout model: MSU crystal-induced neutrophil recruitment (peritonitis)
Type: in vivo, mouse
Conditions: 45 mg/kg i.p. 1 h prior to 3 mg MSU crystals; 6 h; group C, n=8; vehicle group B 6.30 ± 0.33
Protocol: Male outbread Swiss albino mice (20-22 g body weight) were purchased from Banton and Kingsman (T.O. strain; Hull, Humberside) and maintained on a standard chow pellet diet with tap water ad libitum and a 12:00 h light/dark cycle. All animals were housed for 1 week prior to experimentation to allow body weight to reach 28-30 g.
1,11b-dihydrobenzopyrano[4,3,2-de ]isoquinolin-1-one was dissolved in 100% DMSO at room temperature at a concentration of 45 mg in 2 ml. The compound was then injected into the peritoneal cavity, so as each mouse received a single dose corresponding to 45 mg/2 ml/kg (e.g. 60 μl for a mouse of 30 g). Control mice received DMSO at 2 ml/kg i.p. A third group of mice which were left untreated were added to control for potential effects of the vehicle. The study involved therefore, the following three groups: group A, untreated mice, n=6, group B, DMSO-treated mice, n=8, and group C, mice treated with 1,11b-dihydrobenzopyrano[4,3,2-de ]isoquinolin-1-one, n=8.
MSU crystal-induced neutrophil recruitment was tested as follows. In all cases, mice were treated 1 h after the treatment noted above, with MSU crystals. A homogenous suspension of MSU crystals was obtained by a 30 min rotation. Peritonitis was induced by injection of 3 mg MSU crystals in 0.5 ml PBS (0.1 M, pH 7.4), and the recruitment of neutrophils into the cavity evaluated at the 6 h time point (Getting, et al., 1997, J. Pharmacol. Exp. Ther. 283: 123-130). Animals were then euthanised by CO2 exposure and the peritoneal cavity washed with 3 ml of PBS supplemented with 3 mM EDTA and 25 U/ml heparin.
An aliquot (100 μl) of the lavage fluid was then diluted 1:10 in Turk's solution (0.01% crystal violet in 3% acetic acid). The samples were then vortexed and 10 μl of the stained cell solution were placed in a Neubauer haematocymometer and neutrophils numbers counted using a light microscope (Olympus B061). […]
Data are shown for single mice, and also shown as mean±S.E. of (n) mice per group. Statistical differences were determined by ANOVA, plus Bonferroni test. […]

Compound | Neutrophils (mean ± S.E.)
O=C1N=Cc2cccc3c2C1c1ccccc1O3 (centres unmarked) [1,11b-dihydrobenzopyrano[4,3,2-de]isoquinolin-1-one] | 2.85 ± 0.34 (8)* 10^6 per mouse

Same assay, conditions: 45 mg/kg i.p. 1 h prior to 3 mg MSU crystals; peritoneal lavage at 6 h; group C, one value per mouse

Compound | Neutrophil Numbers (single mice)
O=C1N=Cc2cccc3c2C1c1ccccc1O3 (centres unmarked) [1,11b-dihydrobenzopyrano[4,3,2-de]isoquinolin-1-one] | 2.4 10^6 per mouse (2×) and 3.0 10^6 per mouse (2×) and 2.7 10^6 per mouse and 2.1 10^6 per mouse (2×) and 5.1 10^6 per mouse

Same assay, conditions: 45 mg/kg i.p.; 6 h after MSU crystals

Compound | inhibition of cell influx vs. the vehicle group
O=C1N=Cc2cccc3c2C1c1ccccc1O3 (centres unmarked) [1,11b-dihydrobenzopyrano[4,3,2-de]isoquinolin-1-one] | 55%

Test system: ischemia and reperfusion of the heart
Experiment: not given
Conditions: rabbit; single injection 1 mg/kg; cited from earlier work

Compound | reduction in infarct size
Oc1cccc2c(O)nccc12 [1,5-dihydroxyisoquinoline] | 38-48%

Same assay, conditions: rabbit; single injection 10 mg/kg, one minute before occlusion or before reperfusion; cited from earlier work

Compound | reduction in infarct size in the heart
NC(=O)c1cccc(N)c1 [3-amino-benzamide] | 32-42%

Test system: PARP
Experiment: not given
Conditions: read-out: IC50 for inhibiting PARP; reported by Suto et al.; cited from earlier work

Compound | IC50
O=C1NCCc2c(OCCCCN3CCCCC3)cccc21 [DPQ, 3,4-dihydro-5-[4-(1-piperidinyl)-butoxy]-1(2H)-isoquinolinone] | 40 nM
